Reference: patent US10047105B2, “Gyrase inhibitors” (Merck Sharp & Dohme Corp., priority 2009, dated 2018)
Converted amounts (≈) assume the structure as drawn.

Key:
S. aureus ATCC 13709 = test: MIC, antibacterial potency, S. aureus; format: cell-based; conditions: S. aureus
S. pneumoniae ATCC 51916 = test: MIC, S. pneumoniae; format: cell-based; conditions: S. pneumoniae

Structure (SMILES)	MIC, SA (S. aureus ATCC 13709)	MIC Spn52 (S. pneumoniae ATCC 51916)
CCc1[nH]c2nc(Sc3cnc4sc(NC(C)=O)nc4c3)nc(N3CC(N)C3)c2c1Br [700,471]	2 µg/mL (≈ 3.85 µM)	8 µg/mL (≈ 15.4 µM)
CCc1[nH]c2nc(Sc3cnc4c(N)nc(N)nc4c3)nc(N(C)CCNC)c2c1Cl.O=C(O)C(F)(F)F.O=C(O)C(F)(F)F [700,472]	64 µg/mL	64 µg/mL
CCOC(=O)Cc1nc(N)c2ncc(Sc3nc(N4CC(O)C4)c4c(Cl)c(CC)[nH]c4n3)cc2n1.O=C(O)C(F)(F)F.O=C(O)C(F)(F)F [700,473]	32 µg/mL	64 µg/mL
CCOc1nc(Cc2cccnc2)nc2[nH]c(CC)c(Cl)c12 [700,474]	8 µg/mL (≈ 25.3 µM)	8 µg/mL (≈ 25.3 µM)
CCOC(=O)c1nc2cc(Sc3nc(N4CC(O)C4)c4c(Br)c(CC)[nH]c4n3)cnc2n(C)c1=O [700,475]	> 64 µg/mL	> 64 µg/mL
CCOc1nc(Nc2cnc3c(c2)nnn3CC2CC2)nc2[nH]c(CC)c(Br)c12.O=C(O)C(F)(F)F [700,476]	> 64 µg/mL	> 64 µg/mL
CCc1[nH]c2nc(Oc3cncc(F)c3)nc(Oc3cncc(F)c3)c2c1Cl.O=C(O)C(F)(F)F [700,477]	1 µg/mL	16 µg/mL
CCc1[nH]c2nc(Cc3cccnc3)nc(N(C)C)c2c1Cl [700,478]	64 µg/mL (≈ 203 µM)	> 64 µg/mL
CCc1[nH]c2nc(Cc3cccnc3)nc(Oc3cccnc3)c2c1Cl [700,479]	4 µg/mL (≈ 10.9 µM)	32 µg/mL (≈ 87.5 µM)
CCc1[nH]c2nc(Sc3ccc4c(N)nc(N)nc4c3)nc(N3CCC3)c2c1Cl.O=C(O)C(F)(F)F.O=C(O)C(F)(F)F [700,480]	16 µg/mL	> 64 µg/mL
CCc1[nH]c2nc(Sc3cnc4nccnc4c3)nc(OC3CNC3)c2c1Br [700,481]	8 µg/mL (≈ 17.5 µM)	2 µg/mL (≈ 4.36 µM)
CCc1[nH]c2nc(Nc3cnc4c(c3)nnn4C(C)C)nc(N3CC(O)C3)c2c1Br.O=C(O)C(F)(F)F [700,482]	> 64 µg/mL	> 64 µg/mL
CCOc1nc(Nc2ccc(Cl)c3ncccc23)nc2[nH]c(CC)c(Br)c12.O=C(O)C(F)(F)F [700,483]	32 µg/mL	32 µg/mL
CCc1[nH]c2nc(Nc3cnc4c(c3)nnn4C(C)C)nc(N3CC(N)C3)c2c1Br.O=C(O)C(F)(F)F.O=C(O)C(F)(F)F [700,484]	4 µg/mL	8 µg/mL
CCc1[nH]c2nc(Nc3cnc4c(c3)nnn4C(C)C)nc(N3CC(NC(=O)OC(C)(C)C)C3)c2c1Br.O=C(O)C(F)(F)F [700,485]	4 µg/mL	> 64 µg/mL
CCc1[nH]c2nc(Sc3cnc4nccnc4c3)nc(OC3CNC3)c2c1Cl [700,486]	16 µg/mL (≈ 38.7 µM)	8 µg/mL (≈ 19.3 µM)
CCc1[nH]c2nc(Sc3cnc4nccnc4c3)nc(N3CC(CNS(C)(=O)=O)C3)c2c1Cl [700,487]	≤ 0.5 µg/mL	≤ 0.5 µg/mL
CCNC(=O)NC1CN(c2nc(Sc3cnc4nccnc4c3)nc3[nH]c(CC)c(Cl)c23)C1 [700,490]	> 64 µg/mL	1 µg/mL (≈ 2.07 µM)
CCNC(=O)NCC1CN(c2nc(Sc3cnc4nccnc4c3)nc3[nH]c(CC)c(Cl)c23)C1 [700,491]	≤ 0.5 µg/mL	1 µg/mL (≈ 2.01 µM)
CCc1[nH]c2nc(Sc3cnc4c(N)nc(N)nc4c3)nc(OCc3cccnc3)c2c1Cl.O=C(O)C(F)(F)F.O=C(O)C(F)(F)F [700,492]	8 µg/mL	> 64 µg/mL
CCc1[nH]c2nc(Sc3cnc4c(N)nc(N)nc4c3)nc(OCCn3ccnc3)c2c1Cl.O=C(O)C(F)(F)F.O=C(O)C(F)(F)F [700,493]	> 64 µg/mL	> 64 µg/mL
CCc1[nH]c2nc(Sc3cnc4c(N)nc(C)nc4c3)nc(OCCn3ccnc3)c2c1Cl.O=C(O)C(F)(F)F [700,494]	> 64 µg/mL	> 64 µg/mL

Structure (SMILES)	MIC, SA (S. aureus ATCC 13709)	MIC Spn52 (S. pneumoniae ATCC 51916)
CCc1[nH]c2nc(Cc3cccnc3)nc(N3CC(N)C3)c2c1Cl [700,495]	64 µg/mL (≈ 187 µM)	> 64 µg/mL
CCc1[nH]c2nc(Nc3cnc4c(c3)nnn4CC3CC3)nc(N3CC(S(=O)(=O)CC4CC4)C3)c2c1Br.O=C(O)C(F)(F)F [700,496]	> 64 µg/mL	> 64 µg/mL
CCc1[nH]c2nc(Sc3cnc4nccnc4c3)nc(N3CC[C@H](N(C)C)C3)c2c1Cl.O=C(O)C(F)(F)F [700,497]	1 µg/mL	4 µg/mL
CCc1[nH]c2nc(Nc3cnc4c(c3)nnn4CC3CC3)nc(N3CC(O)C3)c2c1Br.O=C(O)C(F)(F)F [700,498]	16 µg/mL	> 64 µg/mL
CCc1[nH]c2nc(Sc3cnc4nccnc4c3)nc(N3CC(CNC(=N)N)C3)c2c1Cl.O=C(O)C(F)(F)F [700,502]	16 µg/mL	> 64 µg/mL
CCc1[nH]c2nc(Sc3cnc4nccnc4c3)nc(N3CC(NC(=N)N)C3)c2c1Cl.O=C(O)C(F)(F)F [700,503]	16 µg/mL	> 64 µg/mL
CCc1[nH]c2nc(Sc3cnc4nccnc4c3)nc(N3CC(NC(=O)CN4CCNCC4)C3)c2c1Cl.O=C(O)C(F)(F)F.O=C(O)C(F)(F)F [700,504]	4 µg/mL	32 µg/mL
CCc1[nH]c2nc(Sc3cnc4nccnc4c3)nc(N3CC(NC(=O)CNC4CCOC4=O)C3)c2c1Cl.O=C(O)C(F)(F)F (stereo not shown) [700,505]	4 µg/mL	32 µg/mL
CCc1[nH]c2nc(Sc3cnc4nccnc4c3)nc(N3CC(NC(=O)COn4nnc5ccccc54)C3)c2c1Cl [700,506]	≤ 0.5 µg/mL	1 µg/mL (≈ 1.7 µM)
CCc1[nH]c2nc(Sc3cnc4c(C(C)C)nc(N)nc4c3)nc(OCCn3ccnc3)c2c1Cl.O=C(O)C(F)(F)F [700,507]	> 64 µg/mL	> 64 µg/mL
CCc1[nH]c2nc(Sc3cnc4nccnc4c3)nc(NCCNC(=O)OC(C)(C)C)c2c1Cl.O=C(O)C(F)(F)F [700,508]	2 µg/mL	4 µg/mL
CCc1[nH]c2nc(Sc3cnc4nccnc4c3)nc(NCCN)c2c1Cl.O=C(O)C(F)(F)F [700,509]	16 µg/mL	16 µg/mL
CCc1[nH]c2nc(Sc3cnc4nccnc4c3)nc(NCCN3CCCC3)c2c1Cl.O=C(O)C(F)(F)F [700,510]	> 64 µg/mL	> 64 µg/mL
CCc1[nH]c2nc(Sc3cnc4nccnc4c3)nc(NCCN3CCNCC3)c2c1Cl.O=C(O)C(F)(F)F.O=C(O)C(F)(F)F [700,511]	> 64 µg/mL	> 64 µg/mL
CCc1[nH]c2nc(Sc3cnc4nccnc4c3)nc(NCCNC)c2c1Cl.O=C(O)C(F)(F)F [700,512]	> 64 µg/mL	> 64 µg/mL
CCc1[nH]c2nc(Sc3cnc4nccnc4c3)nc(NCCN(C)C)c2c1Cl.O=C(O)C(F)(F)F [700,513]	> 64 µg/mL	32 µg/mL
CCc1[nH]c2nc(Sc3cnc4c(N)nc(C)nc4c3)nc(N3CC(O)C3)c2c1Cl.O=C(O)C(F)(F)F [700,514]	≤ 0.5 µg/mL	≤ 0.5 µg/mL
CCc1[nH]c2nc(Sc3cnc4c(N)nc(C)nc4c3)nc(N3CC(N)C3)c2c1Cl.O=C(O)C(F)(F)F [700,515]	1 µg/mL	1 µg/mL
CCc1[nH]c2nc(Sc3cnc4nccnc4c3)nc(N3CC(CNC(=O)C4CC4)C3)c2c1Cl [700,516]	≤ 0.5 µg/mL	1 µg/mL (≈ 2.02 µM)
CCc1[nH]c2nc(Sc3cnc4nccnc4c3)nc(N3CC(CNC(=O)C4CCC4)C3)c2c1Cl [700,517]	≤ 0.5 µg/mL	2 µg/mL (≈ 3.93 µM)
CCc1[nH]c2nc(Sc3cnc4nccnc4c3)nc(N3CC(CNC(=O)CCN4CCCCC4)C3)c2c1Cl [700,518]	4 µg/mL (≈ 7.07 µM)	4 µg/mL (≈ 7.07 µM)
CCc1[nH]c2nc(Sc3cnc4nccnc4c3)nc(N3CC(CNC(=O)CN4C(=O)CSC4=O)C3)c2c1Cl [700,519]	1 µg/mL (≈ 1.71 µM)	1 µg/mL (≈ 1.71 µM)
